For orientation: IC50 means the concentration that gives 50% inhibition. The term Cmax denotes the maximum level reached in the sampled fluid or tissue. By clearance is commonly meant the rate of elimination divided by the concentration.

Series [1] can be described thus: Plasma protein binding rate, human. The note with it: read-out: PPB % (plasma protein binding rate) (converted). It counts as in vitro ADME.
In series [2] the target is PI3K gamma (Homo sapiens, UniProt P48736). Put plainly: In vitro enzyme activity assay (ADP-Glo lipid kinase), PI3K gamma. The note with it: PI3Kγ IC50, ATP 25 μM, PIP2:3PS 50 μM, 120 min. (ADP-Glo first removes unused ATP, then detects ADP through luciferase.)
PI3K gamma, sequence (P48736 whole entry): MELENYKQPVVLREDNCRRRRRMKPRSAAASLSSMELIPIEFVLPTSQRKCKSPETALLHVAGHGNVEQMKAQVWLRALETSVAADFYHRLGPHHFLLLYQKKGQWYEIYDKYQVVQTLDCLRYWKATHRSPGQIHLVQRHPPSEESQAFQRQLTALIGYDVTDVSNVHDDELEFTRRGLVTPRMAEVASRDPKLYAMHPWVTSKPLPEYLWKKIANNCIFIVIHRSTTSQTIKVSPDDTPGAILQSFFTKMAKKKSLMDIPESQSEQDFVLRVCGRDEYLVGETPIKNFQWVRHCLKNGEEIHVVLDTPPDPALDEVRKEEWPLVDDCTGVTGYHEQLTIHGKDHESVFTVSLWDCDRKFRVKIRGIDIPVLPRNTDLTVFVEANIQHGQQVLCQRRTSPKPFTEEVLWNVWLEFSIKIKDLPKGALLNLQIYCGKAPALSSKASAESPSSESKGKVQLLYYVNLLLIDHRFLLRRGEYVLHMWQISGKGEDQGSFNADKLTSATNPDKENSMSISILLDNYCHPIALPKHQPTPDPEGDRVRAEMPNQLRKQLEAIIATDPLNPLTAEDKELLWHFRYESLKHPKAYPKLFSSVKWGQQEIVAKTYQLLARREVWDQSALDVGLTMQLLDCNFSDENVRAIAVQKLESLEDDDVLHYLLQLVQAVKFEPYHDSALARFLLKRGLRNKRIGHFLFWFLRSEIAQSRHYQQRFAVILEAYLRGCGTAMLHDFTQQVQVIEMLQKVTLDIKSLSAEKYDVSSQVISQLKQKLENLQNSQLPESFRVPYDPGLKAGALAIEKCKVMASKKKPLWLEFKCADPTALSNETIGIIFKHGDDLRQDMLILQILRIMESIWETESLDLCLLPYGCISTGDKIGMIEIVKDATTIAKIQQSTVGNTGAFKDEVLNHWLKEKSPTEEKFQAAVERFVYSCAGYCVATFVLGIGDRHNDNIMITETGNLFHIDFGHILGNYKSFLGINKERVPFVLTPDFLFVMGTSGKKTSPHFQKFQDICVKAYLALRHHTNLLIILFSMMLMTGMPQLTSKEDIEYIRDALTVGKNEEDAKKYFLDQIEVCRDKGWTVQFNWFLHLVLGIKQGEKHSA
Description: (§2) An appropriate substrate and ATP were incubated at a suitable condition for lipid kinase reaction, followed by a two-step detection of kinase activity using an ADP-Glo™ kit. Step I: The kinase reaction was terminated and residual ATP was completely removed, leaving ADP only; Step II: A kinase assay reagent was added to convert ADP to ATP by a luciferin/luciferase reaction. Finally, a fluorescence output value was detected and converted into kinase activity.
(§3) • 2) Kit: ADP-Glo™ lipid kinase and PIP2:3PS kit (Promega #V1792)
(§4) The mixture was incubated at 23° C. for 20 min • (10) 2 μL of ATP solution was added, and the mixture was centrifuged at 1000 rpm and was shaken to mix well • (11) The plate was covered, shaken for about 30 s, and incubated for 2 h at 23° C. • (12) 5 μL of ADP-Glo reagent containing 10 mM MgCl2 was added • (13) The mixture was centrifuged at 1000 rpm for 10 s, covered and shaken for about 30 s, and incubated at 23° C. for 60 min • (14) 10 μL of kinase assay reagent was added • (15) The mixture was centrifuged at 1000 rpm for 10 s, and incubated at 23° C. for 60 min • (16) Fluorescence values were measured by an Envision system. • 2. […] The mixture was incubated at 37° C./CO2 for 10 min. • 5) The compound was removed by pipette. Lysis buffer was added at 50 μL/well, and the cells wereincubated on a shaker for 30 min. • 6) After the cells were completely lysed, 16 μL of lysate was transferred to a 384-well plate and 4 μL of prepared AC+D2 in the kit was added. (AC: Eu3+-cryptate antibody binds to phosphorylated AKT, while D2 binds to non-phosphorylated AKT) The mixture was incubated at room temperature for 4 h.
Series [3] in a line: In vivo DMPK study, single dose in female Balb/c mice. The note with it: for half-life / clearance / Vd / bioavailability: female, Balb/c; for half-life / Cmax / clearance / Vd / bioavailability: mouse, plasma; for half-life: 1 mg/kg, note lists it as an intravenous parameter, read-out: T1/2 (half-life) (converted); for half-life / Oral DNAUC (dose-normalized area under curve) / clearance / Vd / bioavailability: mice; for Cmax: oral 3 mg/kg, female Balb/c mice; for clearance / Vd: intravenous 1 mg/kg; for clearance: read-out: Cl (clearance); for Vd: read-out: Vd (apparent volume of distribution); for bioavailability: oral 3 mg/kg vs intravenous 1 mg/kg, read-out: F % (oral bioavailability). As to the method: Objective: To evaluate the plasma concentration of the compounds and pharmacokinetics after a single dose in female Balb/c mice.
Procedures: 8 healthy adult female Balb/c mice were randomized, 4 for intravenous administration and 4 for oral administration. The compounds were mixed with a proper amount of vehicle for intravenous injection (DMSO/PEG200/water (5:45:50 v/v/v)). The mixture was vortexed and treated with ultrasound to give a 1.0 mg/mL clear solution. The clear solution was filtered through a microporous membrane filter for later use. For the oral group, the vehicle was 0.5% MC/0.2% Tween 80. The compound was mixed with the vehicle, and the mixture was vortexed and ultrasonically treated to give 1.0 mg/mL uniform suspension for later use. The mice were administered intravenously at 1 mg/kg or orally at 3 mg/kg. Whole blood was collected at certain time points, and plasma was separated. The drug concentration was measured by LC-MS/MS, and pharmacokinetic parameters were calculated using
Phoenix WinNonlin software (Pharsight, USA).

Series [4] is described as follows: Plasma protein binding rate, mouse. It counts as in vitro ADME. The note with it: read-out: PPB % (plasma protein binding rate) (converted).
In series [5] the target is PI3K delta (Homo sapiens, UniProt O00329). Put plainly: In vitro enzyme activity assay (ADP-Glo lipid kinase), PI3K delta.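 Also: kinase reaction run at 23 °C, then leftover ATP depleted and the ADP formed turned back into ATP, with the luciferin/luciferase signal read as kinase activity.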 The note with it: PI3Kδ IC50, ATP 40 μM, PIP2:3PS 50 μM, 120 min.
PI3K delta, sequence (O00329 whole entry): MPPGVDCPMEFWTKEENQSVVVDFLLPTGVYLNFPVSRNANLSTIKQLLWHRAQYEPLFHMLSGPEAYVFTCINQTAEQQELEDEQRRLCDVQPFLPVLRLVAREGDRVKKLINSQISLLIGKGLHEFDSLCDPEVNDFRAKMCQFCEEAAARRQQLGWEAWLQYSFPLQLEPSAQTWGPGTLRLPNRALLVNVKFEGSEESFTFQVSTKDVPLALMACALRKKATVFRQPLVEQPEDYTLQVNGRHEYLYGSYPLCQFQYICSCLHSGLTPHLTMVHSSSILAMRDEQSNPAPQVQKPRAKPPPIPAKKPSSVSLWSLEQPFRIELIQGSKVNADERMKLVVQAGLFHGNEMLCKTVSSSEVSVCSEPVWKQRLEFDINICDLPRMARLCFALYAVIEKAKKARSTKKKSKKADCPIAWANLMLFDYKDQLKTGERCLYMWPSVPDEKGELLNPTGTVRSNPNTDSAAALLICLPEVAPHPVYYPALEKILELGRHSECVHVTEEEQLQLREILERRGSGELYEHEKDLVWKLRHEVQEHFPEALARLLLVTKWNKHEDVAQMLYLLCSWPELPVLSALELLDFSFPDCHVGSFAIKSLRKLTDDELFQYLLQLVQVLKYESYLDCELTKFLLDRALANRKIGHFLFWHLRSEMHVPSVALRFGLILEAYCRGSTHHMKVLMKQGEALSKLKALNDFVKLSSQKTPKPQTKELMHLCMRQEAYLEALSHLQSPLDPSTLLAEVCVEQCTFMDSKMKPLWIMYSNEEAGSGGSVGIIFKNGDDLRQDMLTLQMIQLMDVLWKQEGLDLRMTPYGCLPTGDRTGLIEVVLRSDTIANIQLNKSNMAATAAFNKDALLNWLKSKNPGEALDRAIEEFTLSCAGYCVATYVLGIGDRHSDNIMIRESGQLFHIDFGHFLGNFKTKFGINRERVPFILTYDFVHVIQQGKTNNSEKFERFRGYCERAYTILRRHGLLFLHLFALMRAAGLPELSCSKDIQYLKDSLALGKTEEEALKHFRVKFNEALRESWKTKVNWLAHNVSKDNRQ
PI3K delta, sequence (P27986 whole entry partner): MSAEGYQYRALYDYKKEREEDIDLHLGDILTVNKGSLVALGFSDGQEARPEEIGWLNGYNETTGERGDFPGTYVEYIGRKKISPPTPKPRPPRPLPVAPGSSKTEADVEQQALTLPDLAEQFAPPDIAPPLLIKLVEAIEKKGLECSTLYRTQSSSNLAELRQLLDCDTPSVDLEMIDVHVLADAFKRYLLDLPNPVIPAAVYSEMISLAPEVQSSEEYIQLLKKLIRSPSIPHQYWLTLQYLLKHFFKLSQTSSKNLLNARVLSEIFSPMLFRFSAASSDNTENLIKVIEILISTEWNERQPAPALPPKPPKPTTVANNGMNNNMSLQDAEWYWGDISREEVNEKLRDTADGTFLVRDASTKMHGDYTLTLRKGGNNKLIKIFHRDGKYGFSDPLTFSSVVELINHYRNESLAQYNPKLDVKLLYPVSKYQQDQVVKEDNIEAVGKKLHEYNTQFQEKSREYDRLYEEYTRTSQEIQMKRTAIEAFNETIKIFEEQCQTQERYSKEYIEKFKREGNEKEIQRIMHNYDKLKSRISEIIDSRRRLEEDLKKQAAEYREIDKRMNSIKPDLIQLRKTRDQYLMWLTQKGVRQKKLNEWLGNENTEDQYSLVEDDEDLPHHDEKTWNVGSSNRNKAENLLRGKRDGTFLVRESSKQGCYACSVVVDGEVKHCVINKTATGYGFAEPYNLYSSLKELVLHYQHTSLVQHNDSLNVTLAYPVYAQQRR
Description: as §2, §3
The kit comprises: 1 mM PIP2:3PS, 10× lipid dilution buffer, 1 M magnesium chloride, 10 mM ATP, 10 mM ADP, ADP-Glo reagent, detection buffer and substrate. • 3) Plate: OptiPlate-384, white and transparent (PerkinElmer #6007299) Reagent preparation: • 1) 10x reaction buffer: 500 mM HEPES (4-(2-hydroxyethyl)-1-piperazineethanesulfonic acid), pH 7.5, 500 mM NaCl, 9 mM MgCl2; BSA: 10% stock solution, prepared in-house • 2) Condition for final test system: 1× reaction system: 50 mM HEPES, 50 mM NaCl, 3 mM MgCl2, 0.01% BSA (prepared on the day of experiment), 1% DMSO (v/v) +/−compound • 3) Reaction system: 3 μL of enzyme and substrate mixture (1:1) +2 μL of ATP/MgCl2 mixture +5 μL of ADP-Glo reagent +10 μL detection reagent.
The specific experimental procedures are as follows: • 1) Dilution: 50 nL of 100× compound/DMSO solution were transferred into a test plate using Echo • For PI3Kα, the compound was serially diluted by three fold from the highest concentration 0.111 mM to the 10th concentration. • For PI3Kβ/PI3Kδ/PI3Kγ, the compound was serially diluted by three fold from the highest concentration of 1.11 mM to the 10th concentration. • 2) Kinase reaction: • (1) The target compounds were prepared. 50 nL of 100× compound solution or DMSO was added to the corresponding plate • (2) A 3.33 × reaction buffer was prepared • (3) A 3.33× PIP2:3PS solution were prepared; the PIP2:3PS solution should be thawed by vortex for at least 1 min before use • (4) An ATP solution containing 5.25 mM MgCl2 was prepared • (5) 3.33× PI3Kα/PI3Kβ/PI3Kδ/PI3Kγ solutions were prepared • (6) The lipid kinase solution and PIP2:3PS solution were mixed at a volume ratio of 1:1 • (7) The 3.33 × lipid kinase buffer and PIP2:3PS solution were mixed at a volume ratio of 1:1 • (8) 3 μL of the mixed solution of reaction buffer and PIP2:3PS was added to Columns 1 and 2 of the plate • (9) 3 μL of the mixed solution of the enzyme and PIP2:3PS was added to the wells of the plate other than Columns 1 and 2, and was centrifuged for 10 s (1000 rpm). The mixture was incubated at 23° C. for 20 min • (10) 2 μL of ATP solution was added, and the mixture was centrifuged at 1000 rpm and was shaken to mix well • (11) The plate was covered, shaken for about 30 s, and incubated for 2 h at 23° C. • (12) 5 μL of ADP-Glo reagent containing 10 mM MgCl2 was added • (13) The mixture was centrifuged at 1000 rpm for 10 s, covered and shaken for about 30 s, and incubated at 23° C. for 60 min • (14) 10 μL of kinase assay reagent was added • (15) The mixture was centrifuged at 1000 rpm for 10 s, and incubated at 23° C. for 60 min • (16) Fluorescence values were measured by an Envision system. • 2.
In series [6] the test system is TMD-8 cell. Briefly: TMD-8 cell viability test (CellTiter-Glo, 72 h). It counts as cell-based. The note with it: Homo sapiens, TMD8. As to the method:
(§1) 7) After incubation, readings at 620 and 665 nm on EnVingen were recorded. • <2> TMD-8 cell viability test • 1) Cell Culture
Cells were regularly passaged. Cells at logarithmic growth phase were transferred to the plate. • 2) Plating • (1). Cells were stained with trypan blue and viable cells were counted. • (2). Cell concentration was adjusted to 7000 cells/well • (3). 90 μL of cell suspension was added to each well of the plate and cell-free medium was added to blank control wells. • (4). The plate was incubated overnight at 37° C., 5% CO2 and 100% relative humidity in an incubator. • 3) Preparation of Plate Containing Compound Stock
(1). Preparation of plate containing 400× compound stock: Compounds were diluted from the highest concentration gradient to lowest concentration with DMSO. • 4) Preparation of 10× compound working solution and treatment • (1). Preparation of 10× compound working solution: 78 μL of cell culture medium was added to a V-bottom 96-well plate, and 2 μL of compound stock solution was pipetted from the plate containing 400× compound stock into the cell cultures of 96-well plate. 2 μL of DMSO was added to the vehicle control wells and blank control wells. After compounds or DMSO was added, the mixture was well mixed by a pipette. • (2). 10 μL of DMSO-cell culture medium mixture solution was added to the vehicle control wells and blank control wells. The final concentration of DMSO was 0.25%. • (3). The 96-well cell plate was incubated in the incubator for another 72 h. • 5) CellTiter-Glo Luminescent Cell Viability Assay
The following procedure was performed according to the instructions of Promega CellTiter-Glo luminescent cell viability assay kit (Promega-G7573). • (1). CellTiter-Glo buffer was thawed and let stand at room temperature. • (2). The CellTiter-Glo substrate was let stand at room temperature. • (3). The CellTiter-Glo buffer was added to a flask of CellTiter-Glo substrate to dissolve the substrate, thereby preparing a CellTiter-Glo working solution. • (4). The solution was vortexed to completely dissolve the substrate. • (5). The plate was incubated at room temperature for 30 min for equilibration. • (6). 50 μL (equal to half the volume of cell culture medium in each well) of CellTiter-Glo working solution was added to each well. The plate was covered by aluminum foil to avoid light. • (7). The plate was shaken on an orbital shaker for 2 min to induce cell lysis. • (8). The plate was let stand at room temperature for 10 min to stabilize the luminescence signals. • (9). The luminescence signals were detected on 2104 EnVision plate reader.
For orientation: ATP-based viability assays read luminescence as a measure of living cells.

Series [7] has as its system human lymphoma TMD-8 subcutaneous xenograft tumors. Briefly: In vivo efficacy study, TMD-8 subcutaneous xenograft in CB-17 SCID mice. Further details: species or system CB-17 SCID mouse. As to the method: In Vivo Efficacy Study • Objectives: To evaluate the efficacy of the compounds on human lymphoma TMD-8 subcutaneous xenograft tumors in a CB-17 SCID mouse model. • Procedures: • (1) Cell Culture • Human lymphoma TMD-8 cells (Shanghai Junrui-UFBN1682) were cultivated in an RPMI 1640 medium containing 10% fetal bovine serum, 100 U/mL penicillin and 100 μg/mL streptomycin through monolayer culture in vitro in an incubator at 37° C./5% CO2. The cells were digested with trypsin-EDTA twice a week for passaging as per conventional practice. When the saturation reached 80%-90%, the cells were collected, counted and grafted. • (2) Tumor Cell Grafting
0.2 mL (1×10^7 cells) of TMD-8 cells (along with matrigel in a volume ratio of 1:1) was subcutaneously grafted on the right back of each mouse, and the mice were randomized when the mean tumor volume was 99 mm^3. • (3) Preparation of Test Compound
Vehicle group: 0.5% MC/0.2% Tween 80/99.3% water.
Test compound group: A certain amount of the compound was dissolved in a corresponding volume of vehicle in a brown flask. The mixture was vortexed to give a uniform suspension or clear solution.
The experimental indices were to investigate whether tumor growth was inhibited or delayed or the tumor was cured. Tumor diameters were measured twice weekly using a vernier caliper. The tumor volume was calculated according to the following formula: V=0.5a x b^2, where a and b represent the long diameter and short diameter of the tumor, respectively.
The efficacy of compounds against tumor was evaluated by TGI (%). TGI (%) refers to the rate of tumor growth inhibition.

Series [8] has as its target PI3K beta (Homo sapiens, UniProt P42338). Briefly: In vitro enzyme activity assay (ADP-Glo lipid kinase), PI3K beta.
Description: as §2, §3, §4
For series [9], the system named is Jeko-1 cell. Briefly: Jeko-1 cell test (IgM-stimulated, phosphorylated AKT readout). The note with it: Homo sapiens, 2 h compound, IgM stimulation 10 min, phospho-AKT. The series is classed as cell-based. As to the method:
as §1

Series [10] concerns the target PI3K alpha (Homo sapiens, UniProt P42336). Briefly: In vitro enzyme activity assay (ADP-Glo lipid kinase), PI3K alpha.
Description: as §2, §3, §4
Where [11] appears, read: 50 mg/kg(D0-D20) combined with ACP-196 50 mg/kg(D0-D17) + 25 mg/kg(D18-D20).
Setting [12] is: 100 mg/kg(D0-D21) combined with ACP-196 75 mg/kg(D0-D21).

PI3K alpha, sequence (P42336 whole entry): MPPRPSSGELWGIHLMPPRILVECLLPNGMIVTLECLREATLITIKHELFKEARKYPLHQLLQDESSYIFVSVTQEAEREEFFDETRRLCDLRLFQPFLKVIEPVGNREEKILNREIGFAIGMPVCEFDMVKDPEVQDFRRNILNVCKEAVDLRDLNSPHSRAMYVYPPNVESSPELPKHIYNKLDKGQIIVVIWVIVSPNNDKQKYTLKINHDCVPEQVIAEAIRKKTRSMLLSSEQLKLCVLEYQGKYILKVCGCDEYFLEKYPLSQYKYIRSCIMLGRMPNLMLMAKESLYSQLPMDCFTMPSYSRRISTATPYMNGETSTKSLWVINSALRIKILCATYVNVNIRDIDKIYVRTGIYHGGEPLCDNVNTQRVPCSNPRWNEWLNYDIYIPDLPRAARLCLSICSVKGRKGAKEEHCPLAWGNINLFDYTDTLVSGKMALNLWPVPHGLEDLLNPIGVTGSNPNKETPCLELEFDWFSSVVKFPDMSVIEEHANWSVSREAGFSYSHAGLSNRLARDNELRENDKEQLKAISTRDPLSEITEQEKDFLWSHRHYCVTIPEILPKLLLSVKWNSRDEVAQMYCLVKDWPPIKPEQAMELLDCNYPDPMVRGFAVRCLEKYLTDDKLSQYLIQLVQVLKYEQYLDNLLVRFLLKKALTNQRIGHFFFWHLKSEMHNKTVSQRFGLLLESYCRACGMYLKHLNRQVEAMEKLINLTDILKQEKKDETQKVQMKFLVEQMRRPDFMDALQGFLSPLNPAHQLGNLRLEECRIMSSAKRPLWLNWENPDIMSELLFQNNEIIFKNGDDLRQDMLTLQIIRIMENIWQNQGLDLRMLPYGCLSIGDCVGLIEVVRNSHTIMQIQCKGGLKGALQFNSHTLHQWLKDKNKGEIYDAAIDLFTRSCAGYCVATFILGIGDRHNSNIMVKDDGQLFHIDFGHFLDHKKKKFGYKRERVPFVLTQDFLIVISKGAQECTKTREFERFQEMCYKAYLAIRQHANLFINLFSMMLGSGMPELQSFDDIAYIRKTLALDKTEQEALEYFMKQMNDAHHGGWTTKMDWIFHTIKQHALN
PI3K alpha, sequence (P27986 whole entry partner): as the sequence (P27986 whole entry partner) above
PI3K beta, sequence (P42338 whole entry): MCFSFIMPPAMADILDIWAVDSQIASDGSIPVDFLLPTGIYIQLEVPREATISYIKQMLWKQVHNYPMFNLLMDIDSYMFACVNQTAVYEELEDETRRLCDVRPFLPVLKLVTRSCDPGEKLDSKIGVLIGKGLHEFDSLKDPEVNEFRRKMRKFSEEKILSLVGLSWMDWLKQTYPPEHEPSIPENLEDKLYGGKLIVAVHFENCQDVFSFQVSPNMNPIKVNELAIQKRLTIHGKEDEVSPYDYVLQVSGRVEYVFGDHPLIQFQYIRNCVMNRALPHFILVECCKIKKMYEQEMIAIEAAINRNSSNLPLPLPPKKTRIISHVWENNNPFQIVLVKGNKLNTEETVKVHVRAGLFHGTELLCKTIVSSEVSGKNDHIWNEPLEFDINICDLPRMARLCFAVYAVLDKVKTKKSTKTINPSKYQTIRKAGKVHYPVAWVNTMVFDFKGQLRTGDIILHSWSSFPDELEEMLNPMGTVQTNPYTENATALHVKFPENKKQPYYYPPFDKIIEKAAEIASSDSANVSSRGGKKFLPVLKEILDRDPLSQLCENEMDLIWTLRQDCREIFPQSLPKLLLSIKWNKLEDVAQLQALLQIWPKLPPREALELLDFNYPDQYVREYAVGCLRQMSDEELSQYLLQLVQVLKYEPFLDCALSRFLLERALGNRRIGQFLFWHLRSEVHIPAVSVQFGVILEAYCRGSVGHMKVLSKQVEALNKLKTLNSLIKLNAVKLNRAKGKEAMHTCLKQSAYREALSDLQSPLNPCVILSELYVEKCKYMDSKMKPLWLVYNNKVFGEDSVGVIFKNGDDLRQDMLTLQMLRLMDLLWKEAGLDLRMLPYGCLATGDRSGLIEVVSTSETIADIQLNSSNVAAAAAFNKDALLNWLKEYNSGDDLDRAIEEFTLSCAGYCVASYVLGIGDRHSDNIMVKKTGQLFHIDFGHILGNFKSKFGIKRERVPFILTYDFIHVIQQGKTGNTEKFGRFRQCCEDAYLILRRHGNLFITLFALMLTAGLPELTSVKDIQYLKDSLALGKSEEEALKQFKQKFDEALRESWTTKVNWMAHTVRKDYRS
PI3K beta, sequence (P27986 whole entry partner): as the sequence (P27986 whole entry partner) above

For the molecule `COCc1ncc(-c2nn(C(C)c3nc4ccc(F)cn4c(=O)c3-c3cccc(F)c3)c3ncnc(N)c23)s1` (stereo not drawn) [WX026], in [1], the fraction unbound was 0.263. For the same molecule, in series [2], 2220 nM corresponded to half-maximal inhibition (IC50). Moreover, in series [3], the half-life was 1.99 h, the Cmax came out at 5260 nM and the “Oral DNAUC (dose-normalized area under curve)” value worked out at 2406 nM · h/mpk. The fraction unbound in [4] is 0.146. The molecule also came in with an IC50 in [5] of 33.5 nM.
Turning to `COc1ncc(-c2nn(C(C)c3nc4ccc(F)cn4c(=O)c3-c3cccc(F)c3)c3ncnc(N)c23)cn1` (stereo not drawn) [WX042], the IC50 in [2] is 3590 nM. Further, half-maximal inhibition in series [6] (IC50) required 2790 nM. Further, in series [3], the half-life was 3.15 h, the clearance stood at 5.54 mL/min/kg, the Vd turned out to be 1.43 L/kg and the bioavailability turned out to be 49.3%. In series [3], the highest level (Cmax) was 2620 nM and the “Oral DNAUC (dose-normalized area under curve)” value is on record as 2583 nM · h/mpk. For the same molecule, the TGI in [7] (setting [11]) turned out to be 108.01%. This molecule also registered an IC50 in series [5] of 46.9 nM.
In the case of `CC(C)Oc1ccc(-c2nn(C(C)c3nc4ccc(F)cn4c(=O)c3-c3cccc(F)c3)c3ncnc(N)c23)cc1F` (single isomer, unassigned) [WX001], the 50% inhibitory concentration (IC50) in series [8] is greater than 10000 nM; in series [9], 614 nM; in series [2] it was 472 nM; in [6] it was 2970 nM; in [10], greater than 10000 nM; in series [5], 397 nM. Besides, the figures for the fraction unbound in series [1] and in [4] were 0.034 and 0.023, respectively. Further, the half-life in series [3] was 4.8 h. Besides, in [3], the clearance was found to be 4.44 mL/min/kg. Also, the Vd in [3] was found to be 2.02 L/kg. For the same molecule, the bioavailability in series [3] was 101%. The molecule also showed a Cmax in [3] of 1610 nM. Besides, in series [3], the “Oral DNAUC (dose-normalized area under curve)” value is reported as 7179 nM · h/mpk. In addition, the TGI was found to be 108.10% in series [7] (25 mg/kg(D0-D20) combined with ACP-196 50 mg/kg(D0-D17) + 25 mg/kg(D18-D20)), 108.14% in series [7] (setting [11]), 108.10% in series [7] (75 mg/kg(D0-D20) combined with ACP-196 50 mg/kg(D0-D17) + 25 mg/kg(D18-D20)) and 103.95% in series [7] (setting [12]).
Consider `COc1ncc(-c2nn(C(C)c3nc4ccc(F)cn4c(=O)c3-c3cccc(F)c3)c3ncnc(N)c23)s1` (single isomer, unassigned) [WX007], for which the fraction unbound in series [1] was 0.217. The IC50 in series [9] was determined as 125 nM. In series [2], this molecule gave an IC50 of 188 nM. The molecule also returned an IC50 in [6] of 589 nM. Further, in series [3], the half-life is 0.644 h, the clearance stood at 36.7 mL/min/kg, the Vd is 1.75 L/kg and the bioavailability was determined as 84.7%. Moreover, in series [3], the Cmax was determined as 1590 nM and the “Oral DNAUC (dose-normalized area under curve)” value is listed as 674.0 nM · h/mpk. The fraction unbound in [4] was 0.086. The TGI in series [7] (setting [12]) is 103.16%. The IC50 in [5] was determined as 1.88 nM.
`COc1ncc(-c2nn(C(C)c3nc4ccc(F)cn4c(=O)c3-c3cccc(F)c3)c3ncnc(N)c23)cc1C#N` (single isomer, unassigned) [WX005]: the IC50 in [8] was greater than 10000 nM; in series [9], 828 nM; in series [2] it was 8060 nM; in series [10] it was greater than 10000 nM; in series [5], 120 nM.
As to `CC(C)Oc1ccc(-c2nn([C@@H](C)c3oc4ccc(F)cc4c(=O)c3-c3cccc(F)c3)c3ncnc(N)c23)cc1F` [TGR-1202, reference compound], the IC50 in series [8] is greater than 10000 nM; in [9], 478 nM; in [2], 818 nM; in series [6] it was 4050 nM; in series [10] it was greater than 10000 nM. Further, the fraction unbound in [1] and in series [4] was 0.003 in each case. The half-life in series [3] was 5.66 h. The clearance in series [3] worked out at 8.54 mL/min/kg. The Vd in series [3] stood at 4.2 L/kg. The bioavailability in series [3] turned out to be 91.7%. Moreover, the peak level in series [3] (Cmax) was 651 nM. Moreover, the “Oral DNAUC (dose-normalized area under curve)” value in series [3] turned out to be 3043 nM · h/mpk. In addition, the TGI in series [7] (setting [12]) amounted to 103.25%.
Consider `CC(C)Oc1ccc(-c2nn(C(C)c3nc4ccc(F)cn4c(=O)c3-c3cccc(F)c3)c3ncnc(N)c23)cn1` (single isomer, unassigned) [WX004], for which the IC50 was greater than 10000 nM in [8]; 1320 nM in [9]; 1220 nM in [2]; greater than 10000 nM in series [10]; 257 nM in series [5].
`COc1ccc(-c2nn(C(C)c3nc4ccc(F)cn4c(=O)c3-c3cccc(F)c3)c3ncnc(N)c23)cn1` (single isomer, unassigned) [WX012]: the concentration for half-maximal inhibition (IC50) in series [8] was greater than 10000 nM; in series [9], 580 nM; in [2], 2050 nM; in [10], greater than 10000 nM; in [5] it was 54.3 nM. In addition, the fraction unbound was 0.256 in series [1] and 0.192 in [4]. For the same molecule, the highest level in series [3] (Cmax) was 3180 nM. Moreover, the “Oral DNAUC (dose-normalized area under curve)” value in series [3] is 2820 nM · h/mpk.

The record behind these values is patent publication US20220112217A1, “PYRAZOLOPYRIMIDINE DERIVATIVE AND USE THEREOF AS PI3K INHIBITOR” (MEDSHINE DISCOVERY INC., priority 2018, published 2022).
